Data as given in US20080268013A1, “Polyethylene Oxide Polymers Including Anti-Inflammatory Glycodendrons” (EMORY UNIVERSITY, priority 2005, published 2008).

Key:
[1] = tested on: neutrophil and macrophage recruitment; test: Thioglycollate induced murine model of peritoneal inflammation; format: in vivo, mouse; settings: C57BL mice
Protocol: Acute inflammation was induced in a mouse model by thioglycollate injection into the peritoneal cavity.
Thioglycollate induced murine model of peritoneal inflammation. Mice (C57BL, male, 6-8 weeks old) were injected intraperitoneally with 2 mL of 3% thioglycollate broth. Five minutes later, animals received intravenous injections of 0.2 mL sterile pyrogen-free saline (S) with and without heparin (H) or analogs (3c) (0.5 mg/mouse with 0.2 ml saline). Mice were sacrificed after 3 hours and peritoneal cells harvested by lavage with 8 mL of ice-cold phosphate buffered saline (PBS) containing 3 mM EDTA. Peritoneal cells were counted and cells stained for 30 minutes at 4° C. with FITC-conjugated rat anti-mouse Gr-1 mAb diluted in PBS containing 2.5% FBS. After washing three times with PBS, FACScan analysis was performed as described by Wang et al. (2002) and was used to sort, count and analyze the percentage of neutrophils and macrophages which were converted to the cell number using the formula N/M=Total cell number X % of NIM, respectively (N:Neutrophil; M: Macrophages). The cells were gated (FACS) expressing a high level of Gr-1 antigen (N) and Mac-1 (M). (See additional ref: Lagasse; E., Weissman; I. J. Immunological Meth. 1996, 197, 139-150). Statistical differences among groups were analyzed by ANOVA method using StatView software.

E-selectin = test: U937 cell adhesion to immobilized E-selectin; format: cell-based; settings: immobilized E-selectin chimera
Protocol: U937 cell binding to immobilized E-, L- or P-selectin. […] After blocking the plate with 10% BSA in PBS, P-selectin (0.05 μg/well), L-selectin (4 μg/well) or E-selectin (1 μg/well) chimeras were added. After 1 hr, wells were washed with blocking solution. U937 cells were grown in RPMI-1640 medium (containing 10% fetal bovine serum (FBS), 100 U/ml penicillin and 100 μg/ml streptomycin in an atmosphere of 5% CO2 in air and 100% relative humidity. The cells were fluorescently labeled with 10 μM calcein AM in RPMI 1640 medium containing 2.5% FBS for 30 min at 37° C. The cells were collected by low speed centrifugation, washed three times with RPMI 1640 medium, and resuspended at a density of 2×10^6 cells/mL in medium without FBS. Heparin and test compounds, or 10 mM sodium EDTA (negative control) were added at 50 μL/well, and then the fluorescently labeled U937 cell suspension (50 μL/well) was added and incubated for 30 min at room temperature. Non-adherent cells were removed by rinsing the plates three times with PBS, and the number of adherent cells was quantified by measuring the fluorescence intensity at 485 nm after […] 2% Triton X-100 in 0.1 M Tris-HCl, pH 9.5. Raw data were converted to relative fluorescence intensity (RFI) for comparative purposes.

heparin was tested, and the “in vivo activity on inflammatory cell recruitment (in words)” value [1] was “inhibited inflammatory cell recruitment to a similar degree” and the “inhibitory activity toward E-selectin (U937 cell adhesion)” value (E-selectin) was “Neither heparin nor 3c exhibited substantial inhibitory activity”.
